According to ChEMBL document CHEMBL3885881, “DrugMatrix”:

Organism: Rattus norvegicus
Assay: DrugMatrix - Regimen: Daily Repeat
Type: toxicity, organism-based, Sprague-Dawley
Parameters: regimen Daily Repeat, gender Male, age 6-8 weeks
Settings: in vivo, po, route oral GAVAGE, […]; for ABSOLUTE BASOPHIL / ABSOLUTE EOSINOPHIL / ABSOLUTE LYMPHOCYTE / ABSOLUTE MONOCYTE / ABSOLUTE SEGMENTED NEUTROPHIL / BASOPHIL / EOSINOPHIL / ERYTHROCYTE COUNT / HEMATOCRIT / HEMOGLOBIN / LEUKOCYTE COUNT / LYMPHOCYTE / MEAN CORPUSCULAR HEMOGLOBIN / MEAN CORPUSCULAR HEMOGLOBIN CONCENTRATION / MEAN CORPUSCULAR VOLUME / MONOCYTE / NEUTROPHIL / NUCLEATED RED BLOOD CELLS / PLATELET COUNT: tissue Blood; for ALANINE AMINOTRANSFERASE / ALBUMIN / ALKALINE PHOSPHATASE / ASPARTATE AMINOTRANSFERASE / BLOOD UREA NITROGEN / CARBON DIOXIDE / CHLORIDE / CHOLESTEROL / CREATINE PHOSPHOKINASE / CREATININE / GLUCOSE / LACTATE DEHYDROGENASE / LIPASE / PHOSPHORUS / POTASSIUM / SODIUM / TOTAL BILIRUBIN / TOTAL PROTEIN / URIC ACID: tissue Plasma
[1] = 100 mg/kg, 120 h, dose level Low, time 5 day
[2] = 750 mg/kg, 72 h, dose level High, time 3 day
[3] = 750 mg/kg, 120 h, dose level High, time 5 day

## CCn1cc(C(=O)O)c(=O)c2cc(F)c(N3CCNCC3)nc21 [ENOXACIN]
[1]
  ABSOLUTE BASOPHIL: 0 CELLS/uL
  ABSOLUTE EOSINOPHIL: 262.67 CELLS/uL
  ABSOLUTE LYMPHOCYTE: 12714 CELLS/uL
  ABSOLUTE MONOCYTE: 457 CELLS/uL
  ABSOLUTE SEGMENTED NEUTROPHIL: 1799.67 CELLS/uL
  BASOPHIL: 0%
  EOSINOPHIL: 1.33%
  ERYTHROCYTE COUNT: 5.43 x10E6/uL
  HEMATOCRIT: 34.07%
  HEMOGLOBIN: 13.27 G/DL
  LEUKOCYTE COUNT: 15.23 x10E3/uL
  LYMPHOCYTE: 83.33%
  MEAN CORPUSCULAR HEMOGLOBIN: 24.4 pg
  MEAN CORPUSCULAR HEMOGLOBIN CONCENTRATION: 38.93 G/DL
  MEAN CORPUSCULAR VOLUME: 62.67 fL
  MONOCYTE: 3%
  NEUTROPHIL: 12.33%
  NUCLEATED RED BLOOD CELLS: 0 /100WBC
  PLATELET COUNT: 958 x10E3/uL
  ALANINE AMINOTRANSFERASE: 51.33 u/L
  ALBUMIN: 4.1 G/DL
  ALKALINE PHOSPHATASE: 295.33 u/L
  ASPARTATE AMINOTRANSFERASE: 76.33 u/L
  BLOOD UREA NITROGEN: 14.33 mg/dL
  CARBON DIOXIDE: 23 mmol/L
  CHLORIDE: 101 MEQ/L
  CHOLESTEROL: 78.33 mg/dL
  CREATINE PHOSPHOKINASE: 454 u/L
  CREATININE: 0.19 mg/dL
  GLUCOSE: 186.67 mg/dL
  LACTATE DEHYDROGENASE: 187 u/L
  LIPASE: 6.33 u/L
  PHOSPHORUS: 12.27 mg/dL
  POTASSIUM: 6.41 MEQ/L
  SODIUM: 140.57 MEQ/L
  TOTAL BILIRUBIN: 0.13 mg/dL
  TOTAL PROTEIN: 5.9 G/DL
  URIC ACID: 1.2 mg/dL
[2]
  ABSOLUTE BASOPHIL: 0 CELLS/uL
  ABSOLUTE EOSINOPHIL: 0 CELLS/uL
  ABSOLUTE LYMPHOCYTE: 12588.33 CELLS/uL
  ABSOLUTE MONOCYTE: 501.33 CELLS/uL
  ABSOLUTE SEGMENTED NEUTROPHIL: 1877 CELLS/uL
  BASOPHIL: 0%
  EOSINOPHIL: 0%
  ERYTHROCYTE COUNT: 5.55 x10E6/uL
  HEMATOCRIT: 34.83%
  HEMOGLOBIN: 13.57 G/DL
  LEUKOCYTE COUNT: 14.97 x10E3/uL
  LYMPHOCYTE: 84.33%
  MEAN CORPUSCULAR HEMOGLOBIN: 24.47 pg
  MEAN CORPUSCULAR HEMOGLOBIN CONCENTRATION: 38.93 G/DL
  MEAN CORPUSCULAR VOLUME: 62.87 fL
  MONOCYTE: 3.33%
  NEUTROPHIL: 12.33%
  NUCLEATED RED BLOOD CELLS: 0 /100WBC
  PLATELET COUNT: 1299.33 x10E3/uL
  ALANINE AMINOTRANSFERASE: 54 u/L
  ALBUMIN: 3.8 G/DL
  ALKALINE PHOSPHATASE: 389 u/L
  ASPARTATE AMINOTRANSFERASE: 64.33 u/L
  BLOOD UREA NITROGEN: 14.67 mg/dL
  CARBON DIOXIDE: 24.67 mmol/L
  CHLORIDE: 101.67 MEQ/L
  CHOLESTEROL: 66.33 mg/dL
  CREATINE PHOSPHOKINASE: 317.67 u/L
  CREATININE: 0.12 mg/dL
  GLUCOSE: 181.33 mg/dL
  LACTATE DEHYDROGENASE: 80.33 u/L
  LIPASE: 10 u/L
  PHOSPHORUS: 9.8 mg/dL
  POTASSIUM: 5.81 MEQ/L
  SODIUM: 140.9 MEQ/L
  TOTAL BILIRUBIN: 0.1 mg/dL
  TOTAL PROTEIN: 5.63 G/DL
  URIC ACID: 1.27 mg/dL
[3]
  ABSOLUTE BASOPHIL: 0 CELLS/uL
  ABSOLUTE EOSINOPHIL: 145 CELLS/uL
  ABSOLUTE LYMPHOCYTE: 12773 CELLS/uL
  ABSOLUTE MONOCYTE: 466 CELLS/uL
  ABSOLUTE SEGMENTED NEUTROPHIL: 1749.33 CELLS/uL
  BASOPHIL: 0%
  EOSINOPHIL: 1%
  ERYTHROCYTE COUNT: 5.4 x10E6/uL
  HEMATOCRIT: 33.53%
  HEMOGLOBIN: 13.27 G/DL
  LEUKOCYTE COUNT: 15.13 x10E3/uL
  LYMPHOCYTE: 84.33%
  MEAN CORPUSCULAR HEMOGLOBIN: 24.57 pg
  MEAN CORPUSCULAR HEMOGLOBIN CONCENTRATION: 39.6 G/DL
  MEAN CORPUSCULAR VOLUME: 62.07 fL
  MONOCYTE: 3%
  NEUTROPHIL: 11.67%
  NUCLEATED RED BLOOD CELLS: 0 /100WBC
  PLATELET COUNT: 1091.67 x10E3/uL
  ALANINE AMINOTRANSFERASE: 57.67 u/L
  ALBUMIN: 4.03 G/DL
  ALKALINE PHOSPHATASE: 396.33 u/L
  ASPARTATE AMINOTRANSFERASE: 69.67 u/L
  BLOOD UREA NITROGEN: 12.67 mg/dL
  CARBON DIOXIDE: 24 mmol/L
  CHLORIDE: 101.33 MEQ/L
  CHOLESTEROL: 61.33 mg/dL
  CREATINE PHOSPHOKINASE: 482.67 u/L
  CREATININE: 0.16 mg/dL
  GLUCOSE: 207 mg/dL
  LACTATE DEHYDROGENASE: 141 u/L
  LIPASE: 6.67 u/L
  PHOSPHORUS: 13.2 mg/dL
  POTASSIUM: 5.17 MEQ/L
  SODIUM: 141.5 MEQ/L
  TOTAL BILIRUBIN: 0.13 mg/dL
  TOTAL PROTEIN: 5.8 G/DL
  URIC ACID: 1.5 mg/dL
